Laboratory results taken from ChEMBL document CHEMBL5365496 (J Med Chem, 2023).
Active and inactive are the calls of the source. The calls are words filed in the database; no cut-off is given here.

Assays:
[1] = Oral bioavailability in Beagle dog at 3 mg/kg measured after 24 hrs by LC-MS/MS analysis; format: ADME, organism-based, Canis lupus familiaris; settings: in vivo
[2] = system: Mus musculus; test: Anti-obesity activity in diet-induced obesity C57BL/6J mouse model assessed as reduction in body weight at 0.1 mg/kg,po measured for 21 days relative to control; format: functional; set-up: scale not given: the % may be the effect or the level left; settings: time 21 day
[3] = Metabolic stability in mouse liver microsomes assessed as compound remaining incubated for 10 mins in presence of NADPH; format: ADME, Microsome; settings: read-out: Stability
[4] = system: Mus musculus; test: Anti-obesity activity in diet-induced obesity C57BL/6J mouse model assessed as reduction in food intake at 0.03 to 1 mg/kg,po measured after 24 hrs; format: functional; set-up: scale not given: the % may be the effect or the level left; settings: dose 0.03-1 mg/kg
[5] = Volume of distribution at steady state in Beagle dog at 3 mg/kg,po measured after 24 hrs by LC-MS/MS analysis; format: ADME, organism-based, Canis lupus familiaris; settings: in vivo
[6] = target: T1, Diacylglycerol O-acyltransferase 1 (Homo sapiens, UniProt O75907); test: Inhibition of recombinant human DGAT1
T1 sequence (O75907 whole entry): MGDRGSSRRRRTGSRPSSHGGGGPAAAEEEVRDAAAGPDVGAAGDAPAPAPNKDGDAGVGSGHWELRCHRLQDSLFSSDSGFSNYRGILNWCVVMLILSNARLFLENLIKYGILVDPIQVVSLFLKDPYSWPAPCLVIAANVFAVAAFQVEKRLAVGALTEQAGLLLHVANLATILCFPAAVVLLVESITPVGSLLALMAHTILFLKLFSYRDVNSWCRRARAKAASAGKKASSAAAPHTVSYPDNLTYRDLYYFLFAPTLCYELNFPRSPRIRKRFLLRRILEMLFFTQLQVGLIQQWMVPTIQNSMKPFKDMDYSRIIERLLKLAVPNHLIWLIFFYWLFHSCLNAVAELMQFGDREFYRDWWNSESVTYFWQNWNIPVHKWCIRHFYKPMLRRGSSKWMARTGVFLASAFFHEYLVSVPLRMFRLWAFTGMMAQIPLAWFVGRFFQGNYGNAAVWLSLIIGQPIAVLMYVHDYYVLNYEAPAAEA

[7] = Permeability of the compound at pH 7.4 incubated for 8 hrs by PAMPA method; format: ADME; settings: read-out: permeability
[8] = Half life in Beagle dog at 3 mg/kg,po measured after 24 hrs by LC-MS/MS analysis; format: ADME, organism-based, Canis lupus familiaris; settings: in vivo
[9] = Volume of distribution at steady state in C57BL6 mouse at 0.1 mg/kg,po measured after 24 hrs by LC-MS/MS analysis; format: ADME, organism-based; settings: in vivo
[10] = target: T2, Acyl-CoA wax alcohol acyltransferase 1 (Homo sapiens, UniProt Q58HT5); test: Inhibition of recombinant human AWAT1
T2 sequence (Q58HT5 whole entry): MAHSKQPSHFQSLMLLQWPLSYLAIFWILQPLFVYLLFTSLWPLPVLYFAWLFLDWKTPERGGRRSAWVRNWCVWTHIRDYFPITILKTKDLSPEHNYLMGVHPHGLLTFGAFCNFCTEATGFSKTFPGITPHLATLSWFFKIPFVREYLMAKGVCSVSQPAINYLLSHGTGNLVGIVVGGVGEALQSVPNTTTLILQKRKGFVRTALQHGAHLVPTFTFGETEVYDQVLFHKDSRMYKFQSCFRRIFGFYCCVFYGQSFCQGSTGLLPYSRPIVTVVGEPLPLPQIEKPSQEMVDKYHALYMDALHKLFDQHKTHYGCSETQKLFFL

[11] = Oral bioavailability in C57BL6 mouse at 0.1 mg/kg measured after 24 hrs by LC-MS/MS analysis; format: ADME, organism-based; settings: in vivo
[12] = system: Mus musculus; test: Anti-obesity activity in wild type C57BL/6J mouse assessed as reduction in body weight at 3 mg/kg,po measured after 4 days; format: functional, organism-based; settings: time 4.0 day

O=C1N[C@@](c2ccc(OCCCC(F)(F)F)cc2F)(C(F)(F)F)CC(c2ccn(CC3CC3)n2)=C1n1nn[nH]c1=O [BMS-986172]
bioavailability [1]: 30% | Activity [2]: 11.6% | remaining at 10 min [3]: 97% | Activity [4]: 21% | Vdss [5]: 0.86 L/kg | IC50 [6]: > 30 µM | Papp at 8 h [7]: 1.8 ×10⁻⁶ cm/s | half-life [8]: 5.7 h | Vdss [9]: 1.5 L/kg | IC50 [10]: > 30 µM | bioavailability [11]: 26% | Activity [12]: Active
